Results on four molecules are retold here after patent US12655365B2, “Low foam cleaning compositions” (ECOLAB USA INC., priority 2020, dated 2026).

The nature of series [1]: Foam evaluation (foam height). Conditions: 1200 ppm solution in water; 120° F.; additive with quaternary ammonium compound. It is filed as physicochemical. As to the method: The foaming properties of the quaternary ammonium compounds were evaluated and then tested for reduced foaming when traditional defoaming compounds were included. The foam height was determined with the following procedural steps: • 1. A 1200 ppm solution of the test composition was mixed in water. • 2. The foam height was measured immediately after mixing. • 3. The solution was agitated and the foam height was measured after 15 seconds. • 4. The solution was agitated and the solution was measured after another 45 seconds of agitation (60 seconds total since the solution was mixed). The temperature of the solution was at 120° F. for the duration of the test. As can been seen in FIGS. 1A and 1B, the various quaternary ammonium compounds tested provided significant foam height after mixing at after 15 seconds of agitation. The traditional defoamers had varying impacts on the foaming properties of the quaternary ammonium compounds.
The ability of the polycarboxylic acids and/or salts to control the foam of different quaternary ammonium compounds was also tested. The same procedural steps outlined above were followed. […].

A further series relates to E. coli (ATCC 11229). Kind of series: Antimicrobial evaluation, log reduction of microbial population. The conditions noted are these: pH 7, 500 ppm hard water, 120° F., about 30 seconds contact. It is filed as cell-based. The protocol: The quaternary ammonium compounds were tested for antimicrobial efficacy against exemplary bacteria (E. coli and S. aureus) under different pH conditions. For this evaluation, various test solutions were prepared in 500 ppm hard water at a temperature of 120° F. The microbial population was contacted with the test composition for about 30 seconds. The microbial population was measured before and after the contacting step and the difference was taken to identify the log reduction. The quaternary ammonium compounds tested, their concentrations, and the corresponding log reductions are shown below in Table 2.

`O=C([O-])c1ccccc1.[Na+]` [sodium benzoate]: the “reduction to the foaming of quaternary ammonium compounds” value (from here on “reduction to the foaming”) in series [1] is “did not”.

Turning to `O=S(=O)([O-])[O-].[Na+].[Na+]` [sodium sulfate], in series [1], the “reduction to the foaming” value was “did not”.

Regarding `CC(=O)O` [acetate], the “reduction to the foaming” value in series [1] was “did not”.

For `CCCCCCCCCC[N+](C)(C)CCCCCCCCCC.[Cl-]` [Bardac 2250, didecyl dimethyl ammonium chloride], the log reduction with E. coli (ATCC 11229) (30 ppm) is listed as 3.33; in the series with E. coli (ATCC 11229) (40 ppm) it was 5.02; in the series with E. coli (ATCC 11229) (50 ppm), 6.71.
